The source of these data is patent US20210253557A1, “SUBSTITUTED TRIAZOLE DERIVATIVES AND USES THEREOF” (Bayer Pharma Aktiengesellschaft, priority 2017, published 2021).

Counter-ions that a name gives are not always drawn.

Experiment [1] has as its target T1, human V2 receptor (Homo sapiens, UniProt P30518).
T1 construct: expressed in transfected cells; host or cells: CHO K1 (ATCC) expressing firefly luciferase under a CRE-responsive promoter
Nature of the experiment: Cellular in vitro assay for determining vasopressin receptor activity (V2, CRE-luciferase). The class given is cell-based. As to conditions: CHO cell line transfected with the human V2 receptor; [Arg8]-vasopressin at EC50 concentration; read-out: IC50 hV2. In a few lines:
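CHO K1 cells stably expressing the human V2 receptor and a CRE-driven firefly luciferase were plated the day before in DMEM/F12 with 2% FCS. Test compounds were added together with [Arg8]-vasopressin at its EC50 and incubated 3 h at 37 °C. Luciferase luminescence was read after Triton lysis and luciferin addition, giving IC50 values.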

Experiment [2] addresses T2, human V1a receptor (Homo sapiens, UniProt P37288).
T2 construct: expressed in transfected cells; host or cells: CHO K1 (ATCC), also stably transfected with a modified aequorin
Nature of the experiment: Cellular in vitro assay for determining vasopressin receptor activity (V1a, aequorin luminescence). The format is cell-based. As to conditions: for IC50: CHO cell line transfected with the human V1a receptor, [Arg8]-vasopressin at EC50 concentration, read-out: IC50 hV1a; for ratio IC50 hV2/hV1a: selectivity ratio of IC50 hV2 to IC50 hV1a.

T1 sequence (P30518 whole entry): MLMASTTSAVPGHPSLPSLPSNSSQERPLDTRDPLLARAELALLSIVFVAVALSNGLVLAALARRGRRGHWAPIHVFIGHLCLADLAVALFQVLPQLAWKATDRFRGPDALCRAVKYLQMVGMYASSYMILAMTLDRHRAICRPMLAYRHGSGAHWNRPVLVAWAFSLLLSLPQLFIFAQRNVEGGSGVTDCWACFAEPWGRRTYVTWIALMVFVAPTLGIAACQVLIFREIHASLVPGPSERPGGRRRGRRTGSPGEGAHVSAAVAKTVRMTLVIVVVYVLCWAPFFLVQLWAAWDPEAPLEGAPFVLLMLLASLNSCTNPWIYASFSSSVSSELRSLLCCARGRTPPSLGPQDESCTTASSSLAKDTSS
T2 sequence (P37288 whole entry): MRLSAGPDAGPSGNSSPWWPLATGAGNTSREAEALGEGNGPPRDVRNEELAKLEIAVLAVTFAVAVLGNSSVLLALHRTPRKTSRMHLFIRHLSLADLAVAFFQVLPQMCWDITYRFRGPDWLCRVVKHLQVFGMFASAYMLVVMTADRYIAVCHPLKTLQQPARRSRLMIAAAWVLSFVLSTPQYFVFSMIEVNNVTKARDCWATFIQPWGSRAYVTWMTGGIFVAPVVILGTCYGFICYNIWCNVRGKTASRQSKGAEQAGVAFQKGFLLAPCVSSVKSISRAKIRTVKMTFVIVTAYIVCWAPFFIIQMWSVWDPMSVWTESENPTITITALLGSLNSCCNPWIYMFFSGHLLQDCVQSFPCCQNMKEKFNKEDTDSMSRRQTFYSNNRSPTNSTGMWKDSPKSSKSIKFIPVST

The term IC50 denotes the concentration at which inhibition is half-maximal. For the molecule `CC(NC(=O)C(F)(F)F)c1nc(Cn2nc(-c3ccc(Cl)cc3)n(C[C@H](O)C(F)(F)F)c2=O)nn1-c1ccccc1Cl` (single isomer, unassigned) [Example 74], the IC50 in experiment [1] was 0.018 µM. In addition, in experiment [2], the IC50 stood at 0.00535 µM and the “ratio IC50 hV2/hV1a” value is 3.4.

With `O=C1NC(c2nc(Cn3nc(-c4ccc(Cl)cc4)n(C[C@H](O)C(F)(F)F)c3=O)nn2-c2ccccc2Cl)CO1` (mixture of isomers) [Example 98, 5-(4-Chlorophenyl)-2-({1-(2-chlorophenyl)-5-[2-oxo-1,3-oxazolidin-4-yl]-1H-1,2,4-triazol-3-yl}methyl)-4-[(2S)-3,3,3-trifluoro-2-hydroxypropyl]-2,4-dihydro-3H-1,2,4-triazol-3-one], the IC50 in experiment [1] was 0.006 µM. Also, in experiment [2], the 50% inhibitory concentration (IC50) was determined as 0.00062 µM and the “ratio IC50 hV2/hV1a” value was determined as 9.8.

Take `CN1C(=O)CCC1c1nc(Cn2nc(-c3ccc(Cl)cc3)n(C[C@H](O)C(F)(F)F)c2=O)nn1CCC(F)(F)F` (single isomer, unassigned) [Example 131]: the IC50 turned out to be 1.54 µM in experiment [1] and 0.00955 µM in experiment [2]. Besides, in experiment [2], the “ratio IC50 hV2/hV1a” value was 161.3.

As to `CC(N)c1nc(Cn2nc(-c3ccc(Cl)cc3)n(C[C@H](O)C(F)(F)F)c2=O)nn1-c1ccccc1Cl` (single isomer, unassigned) [Example 61], the IC50 in experiment [1] came to 0.00283 µM. In experiment [2], the IC50 worked out at 0.00045 µM and the “ratio IC50 hV2/hV1a” value turned out to be 6.3.

As to `CCNC(=O)OCc1nc(Cn2nc(-c3ccc(Cl)cc3)n(C[C@H](OC(=O)NCC)C(F)(F)F)c2=O)nn1-c1ccccc1C(F)(F)F` [Example 50, (2S)-3-{3-(4-Chlorophenyl)-1-[(5-{[(ethylcarbamoyl)oxy]methyl}-1-[2-(trifluoromethyl)phenyl]-1H-1,2,4-triazol-3-yl)methyl]-5-oxo-1,5-dihydro-4H-1,2,4-triazol-4-yl}-1,1,1-trifluoropropan-2-yl ethylcarbamate], the results for the IC50 in experiment [1] and in experiment [2] were 0.022 µM and 0.00095 µM, respectively. In addition, in experiment [2], the “ratio IC50 hV2/hV1a” value is given as 23.0.

Consider `CS(=O)(=O)NC(CO)c1nc(Cn2nc(-c3ccc(Cl)cc3)n(C[C@H](O)C(F)(F)F)c2=O)nn1-c1ccccc1Cl` (mixture of isomers) [Example 85, N-{1-[1-(2-Chlorophenyl)-3-({3-(4-chlorophenyl)-5-oxo-4-[(2S)-3,3,3-trifluoro-2-hydroxypropyl]-4,5-dihydro-1H-1,2,4-triazol-1-yl}methyl)-1H-1,2,4-triazol-5-yl]-2-hydroxyethyl}-methanesulfonamide], for which the IC50 in experiment [1] came to 0.00225 µM. Besides, in experiment [2], the IC50 was found to be 0.00035 µM and the “ratio IC50 hV2/hV1a” value was determined as 6.4.

In the case of `C[C@H](NC(=O)OC(C)(C)C)c1nc(Cn2nc(-c3ccc(Cl)cc3)n(C[C@H](O)C(F)(F)F)c2=O)nn1-c1cccc(Cl)c1` [Example 56, tert-Butyl {(1S)-1-[1-(3-chlorophenyl)-3-({3-(4-chlorophenyl)-5-oxo-4-[(2S)-3,3,3-trifluoro-2-hydroxypropyl]-4,5-dihydro-1H-1,2,4-triazol-1-yl}methyl)-1H-1,2,4-triazol-5-yl]ethyl}Carbamate], the IC50 in experiment [1] was 0.0334 µM. Also, in experiment [2], the IC50 was found to be 0.286 µM and the “ratio IC50 hV2/hV1a” value is on record as 0.1.

Consider `CC(C)(C)OCC(N)c1nc(Cn2nc(-c3ccc(Cl)cc3)n(C[C@H](O)C(F)(F)F)c2=O)nn1-c1ccccc1Cl` (mixture of isomers) [Example 80, 2-({5-[1-Amino-2-tert-butoxyethyl]-1-(2-chlorophenyl)-1H-1,2,4-triazol-3-yl}methyl)-5-(4-chlorophenyl)-4-[(2S)-3,3,3-trifluoro-2-hydroxypropyl]-2,4-dihydro-3H-1,2,4-triazol-3-one], for which the IC50 in experiment [1] is 0.019 µM. Also, in experiment [2], the IC50 worked out at 0.00061 µM and the “ratio IC50 hV2/hV1a” value is reported as 31.4.

Consider `CC(=O)NC(C)c1nc(Cn2nc(-c3ccc(Cl)cc3)n(C[C@H](O)C(F)(F)F)c2=O)nn1-c1ncccn1` (mixture of isomers) [Example 129, N-{1-[3-({3-(4-Chlorophenyl)-5-oxo-4-[(2S)-3,3,3-trifluoro-2-hydroxypropyl]-4,5-dihydro-1H-1,2,4-triazol-1-yl}methyl)-1-(pyrimidin-2-yl)-1H-1,2,4-triazol-5-yl]ethyl}acetamide], for which the IC50 in experiment [1] amounted to 1.55 µM. In addition, in experiment [2], the IC50 stood at 0.19 µM and the “ratio IC50 hV2/hV1a” value came to 8.2.

For the molecule `C[C@@H](OC(N)=O)c1nc(Cn2nc(-c3ccc(Cl)cc3)n(C[C@H](O)C(F)(F)F)c2=O)nn1-c1ncccc1F` [Example 13, (1R)-1-[3-({3-(4-Chlorophenyl)-5-oxo-4-[(2S)-3,3,3-trifluoro-2-hydroxypropyl]-4,5-dihydro-1H-1,2,4-triazol-1-yl}methyl)-1-(3-fluoropyridin-2-yl)-1H-1,2,4-triazol-5-yl]ethyl Carbamate], the IC50 in experiment [1] was determined as 0.035 µM. Moreover, in experiment [2], the IC50 stood at 0.0135 µM and the “ratio IC50 hV2/hV1a” value was 2.6.

Turning to `C[C@@H](OC(N)=O)c1nc(Cn2nc(-c3ccc(Cl)cc3)n(C[C@H](O)C(F)(F)F)c2=O)nn1-c1ccccn1` [Example 11, (1R)-1-[3-({3-(4-Chlorophenyl)-5-oxo-4-[(2S)-3,3,3-trifluoro-2-hydroxypropyl]-4,5-dihydro-1H-1,2,4-triazol-1-yl}methyl)-1-(pyridin-2-yl)-1H-1,2,4-triazol-5-yl]ethyl Carbamate], the IC50 in experiment [1] was 0.225 µM. Further, in experiment [2], the IC50 was determined as 0.115 µM and the “ratio IC50 hV2/hV1a” value came to 2.0.

On to `CC(=O)NC(COC(C)(C)C)c1nc(Cn2nc(-c3ccc(Cl)cc3)n(C[C@H](O)C(F)(F)F)c2=O)nn1-c1ccccc1Cl` (mixture of isomers) [Example 88, N-{2-tert-Butoxy-1-[1-(2-chlorophenyl)-3-({3-(4-chlorophenyl)-5-oxo-4-[(2S)-3,3,3-trifluoro-2-hydroxypropyl]-4,5-dihydro-1H-1,2,4-triazol-1-yl}methyl)-1H-1,2,4-triazol-5-yl]ethyl}acetamide], for which the IC50 in experiment [1] was 0.0455 µM. In addition, in experiment [2], the IC50 is 0.0015 µM and the “ratio IC50 hV2/hV1a” value is on record as 30.3.

For `COc1ccccc1-n1nc(Cn2nc(-c3ccc(Cl)cc3)n(C[C@H](OC(N)=O)C(F)(F)F)c2=O)nc1C(C)OC(N)=O` (single isomer, unassigned) [Example 42], in experiment [1], the IC50 worked out at 0.00737 µM. Besides, in experiment [2], the IC50 came to 0.00108 µM and the “ratio IC50 hV2/hV1a” value is reported as 6.8.

As for `COc1ccccc1-n1nc(Cn2nc(-c3ccc(Cl)cc3)n(C[C@H](OC(N)=O)C(F)(F)F)c2=O)nc1C(C)OC(N)=O` (single isomer, unassigned) [Example 40], the IC50 was 0.00635 µM in experiment [1] and 0.00586 µM in experiment [2]. The “ratio IC50 hV2/hV1a” value in experiment [2] stood at 1.1.

With `CNc1ccncc1-n1nc(Cn2nc(-c3ccc(Cl)cc3)n(C[C@H](O)C(F)(F)F)c2=O)nc1C(C)NC(C)=O` (mixture of isomers) [Example 125, N-[1-{3-({3-(4-Chlorophenyl)-5-oxo-4-[(2S)-3,3,3-trifluoro-2-hydroxypropyl]-4,5-dihydro-1H-1,2,4-triazol-1-yl}methyl)-1-[4-(methylamino)pyridin-3-yl]-1H-1,2,4-triazol-5-yl}ethyl]acetamide hydrochloride], in experiment [1], the IC50 was found to be 0.595 µM. Moreover, in experiment [2], the IC50 stood at 0.064 µM and the “ratio IC50 hV2/hV1a” value is reported as 9.3.

Turning to `NC(CO)c1nc(Cn2nc(-c3ccc(Cl)cc3)n(C[C@H](O)C(F)(F)F)c2=O)nn1-c1ccccc1Cl` (mixture of isomers) [Example 81, 2-({5-[1-Amino-2-hydroxyethyl]-1-(2-chlorophenyl)-1H-1,2,4-triazol-3-yl}methyl)-5-(4-chlorophenyl)-4-[(2S)-3,3,3-trifluoro-2-hydroxypropyl]-2,4-dihydro-3H-1,2,4-triazol-3-one hydrochloride], the IC50 in experiment [1] was determined as 0.00795 µM; in experiment [2], 0.00125 µM. In addition, in experiment [2], the “ratio IC50 hV2/hV1a” value is 6.4.

For `C[C@H](OC(N)=O)c1nc(Cn2nc(-c3ccc(Cl)cc3)n(C[C@H](O)C(F)(F)F)c2=O)nn1-c1ccncc1Cl` [Example 18, (1S)-1-[3-({3-(4-Chlorophenyl)-5-oxo-4-[(2S)-3,3,3-trifluoro-2-hydroxypropyl]-4,5-dihydro-1H-1,2,4-triazol-1-yl}methyl)-1-(3-chloropyridin-4-yl)-1H-1,2,4-triazol-5-yl]ethyl Carbamate], the IC50 in experiment [1] amounted to 0.03 µM; in experiment [2], 0.0077 µM. For the same molecule, in experiment [2], the “ratio IC50 hV2/hV1a” value was 3.9.

In the case of `CNc1ccncc1-n1nc(Cn2nc(-c3ccc(Cl)cc3)n(C[C@H](O)C(F)(F)F)c2=O)nc1C(C)NC(C)=O` (single isomer, unassigned) [Example 126], the IC50 in experiment [1] stood at 1.26 µM. In addition, in experiment [2], the IC50 was 1.39 µM and the “ratio IC50 hV2/hV1a” value was determined as 0.9.

Take `C[C@H](N)c1nc(Cn2nc(-c3ccc(Cl)cc3)n(C[C@H](O)C(F)(F)F)c2=O)nn1-c1cccc(Cl)c1` [Example 57, 2-({5-[(1S)-1-Aminoethyl]-1-(3-chlorophenyl)-1H-1,2,4-triazol-3-yl}methyl)-5-(4-chlorophenyl)-4-[(2S)-3,3,3-trifluoro-2-hydroxypropyl]-2,4-dihydro-3H-1,2,4-triazol-3-one hydrochloride]: the IC50 in experiment [1] came out at 0.00128 µM. Moreover, in experiment [2], the IC50 is 0.0131 µM and the “ratio IC50 hV2/hV1a” value stood at 0.1.

Consider `C[C@H](OC(N)=O)c1nc(Cn2nc(-c3ccc(Cl)cc3)n(C[C@H](O)C(F)(F)F)c2=O)nn1-c1c(Cl)cccc1Cl` [Example 1, (1S)-1-[3-({3-(4-Chlorophenyl)-5-oxo-4-[(2S)-3,3,3-trifluoro-2-hydroxypropyl]-4,5-dihydro-1H-1,2,4-triazol-1-yl}methyl)-1-(2,6-dichlorophenyl)-1H-1,2,4-triazol-5-yl]ethyl Carbamate], for which the IC50 in experiment [1] amounted to 0.0163 µM. Also, in experiment [2], the IC50 turned out to be 0.0035 µM and the “ratio IC50 hV2/hV1a” value came out at 4.7.
